In article PMC3952036 (Cellular and molecular life sciences : CMLS, 2014):

Molecular target: Flag-DOR (murine DOR tagged with Flag at the N-terminus) (Mus musculus, UniProt P32300)
Sequence (P32300 whole entry): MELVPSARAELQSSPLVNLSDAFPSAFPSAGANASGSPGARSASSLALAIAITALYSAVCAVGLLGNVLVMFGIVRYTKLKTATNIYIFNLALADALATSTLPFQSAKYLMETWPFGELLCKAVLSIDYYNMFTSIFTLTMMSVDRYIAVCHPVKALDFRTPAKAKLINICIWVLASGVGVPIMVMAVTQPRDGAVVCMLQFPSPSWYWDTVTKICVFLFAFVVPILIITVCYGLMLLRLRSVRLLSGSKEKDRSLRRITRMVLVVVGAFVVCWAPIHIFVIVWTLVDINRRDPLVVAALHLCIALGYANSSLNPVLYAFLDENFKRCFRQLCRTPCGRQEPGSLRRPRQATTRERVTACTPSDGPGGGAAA

With `C=CCN1C[C@H](C)N([C@H](c2ccc(C(=O)N(CC)CC)cc2)c2cccc(OC)c2)C[C@H]1C` [SNC-80, (1)-4-[(αR)-α-((2S,5R)-4-allyl-2,5-dimethyl-1-piperazinyl)-3-methoxybenzyl]-N,N-diethylbenzamide] the “log KA ± SEM (M)” value was −6.58 ± 0.43 log M.
